Our source for the melting point values is patent publication US6706718B2, “3-(2,4-dimethylthiazol-5-yl)indeno[1,2-c]pyrazol-4-one derivatives and their uses” (Bristol-Myers Squibb Company, priority 2000, dated 2004).

Where a name gives a salt, the structure may show the parent alone. Some results are limits rather than exact numbers.

With `Cc1nc(C)c(-c2[nH]nc3c2C(=O)c2c(NC(=O)NN4CCOCC4)cccc2-3)s1` (as salt: TFA) [Example 2, 3-(2,4-dimethylthiazol-5-yl)-5-(morpholinocarbamoylamino)indeno[1,2-c]pyrazol-4-one], the melting point was greater than 300 °C. Molecule `Cc1nc(C)c(-c2[nH]nc3c2C(=O)c2c(NC(=O)NN4CCN(C)CC4)cccc2-3)s1` (as salt: hydrochloride) gave a melting point of 278 °C.
